“Also recorded” adds a separate entry of the source.

The subject of data set [1] is Human Neural Stem Cells (HNSCs). The experiment in a line: Differentiation of Hath1-transfected HNSCs (calretinin immunocytochemistry, Western blot, electron microscopy). In kind it is cell-based. As for the experimental part: An established a non-serum HNSC culture system was utilized to investigate the differentiation of human neural stem cells (HNSCs) within a defined condition. (Christopher L. Brannen and Kiminobu Sugaya, Regeneration and Transplantation, 11:5, 1123-1128 (2000)). The serum-free supplemented growth medium consisted of HAMS-F12 (Gibco, BRL, Burlington, ON), antibiotic/antimycotic mixture (1:100, Gibco), B27 (1:50, Gibco), human recombinant FGF-2 and EGF (20 ng/ml each, R and D Systems, Minneapolis, Minn.), and heparin (5 ug/ml, Sigma, St. Louis, Mo.). Cells were maintained in 20 ml of this medium at 37° C. in a 5% CO2 humidified incubation chamber.
The mammalian expression vector containing Hath1 gene was transfected into HNSCs by using the Neuroporter Kit (Gene Therapy Systems, Inc. San Diego, Calif.) and Hath 1 gene expression was confirmed by RT-PCR. These Hath1-transfected HNSCs were differentiated for 7 days by the depletion of mitotic factors (FGF-2, EGF) from the culture media. After the differentiation the cells were fixed for immunocytochemistry and Electron Microscopy.
The gene expression of Hath1 is assessed by RT-PCR with the following condition: 95° C. (60″), 56° C. (60″), 72° C. (60″) for 35 cycles, with an initial denaturation of 95° C. (5′) and final elongation of 72° C. (15′). The Hath1 gene is transfected into Human Neural Stem Cells (HNSCs) using the Neuroporter Kit. The Neuroporter kit utilizes a lipid-based transfection system for the use with cultured primary neurons, neuronal cell lines, and glial cells. DNA and Neuroporter are used in a ratio of 10 μg DNA/75 μl Neuroporter, utilizing 37.5 μl per well in a 6-well plate and with total volumes of 1.5 mL growth media per well. […]
Following PBST washing, the cells are incubated with secondary antibody biotinylated anti-rabbit made in goat in PBS containing 0.05% Triton-X100 (PBST), with a dilution factor of 1:200. […] The cells are washed with water, ethanol, and xylene, coverslipped with permount, and ready for viewing with microscopy. […]
For orientation: Immunoblotting shows a protein as a band on a membrane.

In another data set the test system is multipotent stem cells. The experiment in a line: Nkx2-5-transfected multipotent stem cells cocultured with rat cardiomyocytes. The settings on record: coculture with rat cardiomyocytes. Type of data set: cell-based, human. The text has this:
Red=human specific Troponin I, Green=Human cells. Following transfection, multipotent stem cells were cocultured with rat cardiomyocytes that provide environmental signals to allow the transfected cells to develop properly.

In the next data set the test system is LA-N-2 cells. The experiment in a line: Retinoic acid treatment of LA-N-2 human neuroblastoma cells. The settings on record: final concentration 10^−6M. Type of data set: cell-based. The protocol:
LA-N-2 cells were obtained from Dr. Jan Blusztajn (Boston University, MA). The cells were cultured in Leibovitz L-15 medium (Gibco, BRL, Burlington, ON) containing 10% fetal calf serum and antibiotic-antimyotic mixture (Gibco) in a humidified incubator at 37° C. without CO2. The medium was replaced every 3 days. For treatment with retinoic acid (RA), the cells were sub-plated at a density of 0.5-1×10^6 cells/plate using 0.25% trypsin/1 mM EDTA (Gibco, BRL) and allowed to attach overnight. A fresh stock of 4 mM all-trans retinoic acid RA (Sigma, St. Louis, Mo.) was prepared in 100% ethanol under amber lighting. […] The media was changed every 48 h during the differentiation of the cells, which was complete after 7-14 days.
Following fixation, HNSCs were briefly washed 3×5 min in Phosphate buffered saline (PBS), then blocked with 3% normal donkey serum in PBS containing 0.05% Tween 20 (PBS-T) and incubated with goat IgG polyclonal anti-human ChAT (1:500, Chemicon), mouseIgG2b monoclonal anti-human βIII-tubulin (1:1000, Sigma) or rabbit anti-human […] (GFAP) (1:1000, Sigma) overnight at 4° C. The corresponding secondary antibodies (donkey anti-goat, donkey anti-mouse, and donkey anti-rabbit, respectively) conjugated to rhodamine or FITC (Jackson IR Laboratories, Inc.) were added for a 2 hr incubation at RT in the dark. […]

For a further data set, the system named is HNSCs. The data set can be described thus: Co-culture of HNSCs transfected with human Lhx8 gene with RA-treated LA-N-2 cells. Particulars: co-culture with RA-treated LA-N-2 cells. Type of data set: cell-based. As for the experimental part: Using the same vector formation and transfection methods as in Example 2, the Human Lxh8 gene (SEQ ID NO: 6) is transfected into HNSCs. Transfected NHSC cells are cultured in a first treatment that includes LA-N-2 cells that are treated with RA and that express both Lhx8 and ChAT. A co-culture control comprises NHSCs that are not transfected but that are in the same culture vessel as LA-N-2 that are treated with RA and that express both Lhx8 and ChAT. For the first treatment and the co-culture control, HNSC cells are placed in cell culture inserts with an appropriate pore size and suspended in basal media (in the absence of FGF-2 and EGF and without the addition of other extrinsic differentiation factors) over differentiated LA-N-2 cells plated in 6-well plates.
Immunochemistry follows the same procedure as in Example 2 above.

Turning to “Hath1: Hath1 gene amplified from BAC clone RP11-680J17, cloned into mammalian expression vector pcDNAHismax TOPO TA under CMV promoter”, the “cell morphology by electron microscopy” value in data set [1] (transfected HNSCs after differentiation) is on record as “typical IEHC morphology; also recorded: distinct hair-like projections”. Also, the “calretinin expression by Western blot” value in data set [1] (transfected HNSCs differentiated for 7 days) is “single band specific to calretinin molecular weight”. For the same molecule, the “calretinin (hair cell marker) expression by immunocytochemistry” value in data set [1] (transfected HNSCs differentiated for 7 days without FGF-2, EGF) is listed as “existence of cells expressing calretinin”.
“Nkx2-5: developmental control gene Nkx2-5 (SEQ ID NO: 12) transfected into multipotent stem cells (DNA TGCTGGCATGTCCGCTGTCT; listed as DNA, chemistry not given here)”: the “biasing of differentiation (human specific Troponin I staining)” value in the data set on multipotent stem cells is “biases the differentiation toward the development of cardiac cells”.
Take `CC1=C(/C=C/C(C)=C/C=C/C(C)=C/C(=O)O)C(C)(C)CCC1` [RA, all-trans retinoic acid]: the “Lhx8 and ChAT gene expression by RT-PCR compared with non-treated cells” value in the data set on LA-N-2 cells (RA) is “increased expression”. In addition, the “marker expression in LA-N-2 cells (immunostaining)” value in the data set with LA-N-2 cells (RA-containing media, 7-14 days) was “expressed Lhx8, βIII-tubulin, and ChAT”.
Regarding “Human Lxh8 gene: Human Lxh8 gene (SEQ ID NO: 6) transfected into HNSCs with the vector and methods of Example 2”, the “differentiated cell type (βIII-tubulin, ChAT staining)” value with HNSCs is “positive for βIII-tubulin and ChAT”.

Values taken from patent US9127291B2, “Methods and products for biasing cellular development” (University of Central Florida Research Foundation, Inc., priority 2004, dated 2015).
